Data on 14 molecules can be found in patent US12617783B2, “Heterocyclic GLP-1R agonists” (BIOMEA FUSION, INC., priority 2024, dated 2026).

T1 sequence (P43220 24-463): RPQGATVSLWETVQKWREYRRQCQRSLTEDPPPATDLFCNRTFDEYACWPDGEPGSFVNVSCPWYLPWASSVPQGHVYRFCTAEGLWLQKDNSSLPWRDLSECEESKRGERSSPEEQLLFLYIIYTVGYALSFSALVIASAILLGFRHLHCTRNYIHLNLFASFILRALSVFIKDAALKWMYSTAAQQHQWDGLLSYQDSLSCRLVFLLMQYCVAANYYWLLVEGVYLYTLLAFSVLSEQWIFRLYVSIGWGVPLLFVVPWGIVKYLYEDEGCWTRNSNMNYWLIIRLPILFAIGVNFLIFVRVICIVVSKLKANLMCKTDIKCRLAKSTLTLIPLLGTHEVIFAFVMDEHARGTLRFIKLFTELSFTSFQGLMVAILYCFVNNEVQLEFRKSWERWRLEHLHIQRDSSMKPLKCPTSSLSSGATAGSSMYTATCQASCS

This experiment addresses T1, human GLP-1R (Homo sapiens, UniProt P43220).
T1 construct: host or cells: HEK293
Nature of the experiment: GLP-1R cAMP assay (Example B1a, HTRF, 30 min at room temperature). The format is cell-based. The following applies: cAMP accumulation in HEK293 expressing human GLP-1R, no BETP, 30 min room temperature (Method B1a, compounds ID 1-609), Table 1; read-out: EC50. Summed up: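 Competitive HTRF read-out of cAMP after 30 min room-temperature stimulation, BETP absent, of human GLP-1R-HEK293 cells (1,000/well) in HEPES buffer with 500 μM IBMX and 0.1% BSA. Activation normalised to GLP-1(7-37) positive control. EC50 from 4-parameter non-linear regression.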
Regarding `Cc1cc(-n2nc3c(c2-n2ccn(-c4ccc5c(cnn5C)c4F)c2=O)[C@@H]2CC[C@H](C3)N2S(=O)(=O)c2cc3cc([C@H]4CCOC(C)(C)C4)ccc3n2[C@@]2(c3noc(=O)[nH]3)C[C@@H]2C)cc(C)c1F` [Compound 525, 3-[(1S,2S)-1-[5-[(4S)-2,2-dimethyltetrahydropyran-4-yl]-2-[[(1S,8R)-4-(4-fluoro-3,5-dimethyl-phenyl)-3-[3-(4-fluoro-1-methyl-indazol-5-yl)-2-oxo-imidazol-1-yl]-4,5,11-triazatricyclo[6.2.1.02,6]undeca-2,5-dien-11-yl]sulfonyl]indol-1-yl]-2-methyl-cyclopropyl]-4H-1,2,4-oxadiazol-5-one], the EC50 amounted to 0.0584 µM. The figure for `Cc1cc(-n2nc3c(c2N2C(=O)CN(c4ccc5c(cnn5C)c4F)C2=O)[C@H](C)N(C(=O)c2cc4cc([C@H]5CCOC(C)(C)C5)ccc4n2[C@@]2(c4noc(=O)[nH]4)C[C@@H]2C)CC3)cc(C)c1F` [Compound 23, 3-((S)-5-(5-((S)-2,2-dimethyltetrahydro-2H-pyran-4-yl)-1-((1S,2S)-2-methyl-1-(5-oxo-4,5-dihydro-1,2,4-oxadiazol-3-yl)cyclopropyl)-1H-indole-2-carbonyl)-2-(4-fluoro-3,5-dimethylphenyl)-4-methyl-4,5,6,7-tetrahydro-2H-pyrazolo[4,3-c]pyridin-3-yl)-1-(4-fluoro-1-methyl-1H-indazol-5-yl) imidazolidine-2,4-dione] is 0.361 µM. The same measure for `Cc1cc(-n2nc3c(c2-c2ncn(-c4ccc5c(cnn5C)c4F)c2C)[C@H](C)N(C(=O)c2cc4cc([C@H]5CCOC(C)(C)C5)ccc4n2[C@@]2(c4noc(=O)[nH]4)C[C@@H]2C)CC3)cc(C)c1F` [Compound 15, 3-((1S,2S)-1-(5-((S)-2,2-dimethyltetrahydro-2H-pyran-4-yl)-2-((S)-3-(1-(4-fluoro-1-methyl-1H-indazol-5-yl)-5-methyl-1H-imidazol-4-yl)-2-(4-fluoro-3,5-dimethylphenyl)-4-methyl-4,5,6,7-tetrahydro-2H-pyrazolo[4,3-c]pyridine-5-carbonyl)-1H-indol-1-yl)-2-methylcyclopropyl)-1,2,4-oxadiazol-5 (4H)-one]: 0.584 µM.

Regarding `COc1ccc(-n2ccn(-c3c4c(nn3-c3cc(C)c(F)c(C)c3)C[C@H]3CC[C@@H]4N3C(=O)c3cc4cc([C@H]5CCOC(C)(C)C5)ccc4n3[C@@]3(c4noc(=O)[nH]4)C[C@@H]3C)c2=O)cc1` [Compound 223, 3-[(1S,2S)-1-[5-[(4S)-2,2-dimethyltetrahydropyran-4-yl]-2-[(1S,8R)-4-(4-fluoro-3,5-dimethyl-phenyl)-3-[3-(4-methoxyphenyl)-2-oxo-imidazol-1-yl]-4,5,11-triazatricyclo[6.2.1.02,6]undeca-2,5-diene-11-carbonyl]indol-1-yl]-2-methyl-cyclopropyl]-4H-1,2,4-oxadiazol-5-one], the EC50 came to 0.259 µM. The same measure for `Cc1cc(-n2nc3c(c2-n2ccn(-c4ccc5c(cnn5C)c4F)c2=O)[C@@H]2CC[C@H](C3)N2C(=O)c2cc3cc([C@@H]4CCOC5(CC5)C4)ccc3n2[C@@]2(c3noc(=O)[nH]3)C[C@H]2C)cc(C)c1F` [Compound 541, 3-((1S,2R)-1-(2-((4S,7R)-3-(3-(4-fluoro-1-methyl-1H-indazol-5-yl)-2-oxo-2,3-dihydro-1H-imidazol-1-yl)-2-(4-fluoro-3,5-dimethylphenyl)-2,4,5,6,7,8-hexahydro-4,7-epiminocyclohepta [c]pyrazole-9-carbonyl)-5-((R)-4-oxaspiro[2.5]octan-7-yl)-1H-indol-1-yl)-2-methylcyclopropyl)-1,2,4-oxadiazol-5 (4H)-one]: no less than 10 µM; for `Cc1cc(-n2nc3c(c2-n2ccn(-c4ccc5c(cnn5C)c4F)c2=O)[C@@H]2CC[C@H](C3)N2C(=O)c2cc3cc([C@@H]4CCOC5(CC5)C4)ccc3n2[C@@]2(c3noc(=O)[nH]3)C[C@@H]2C)cc(C)c1F` [Compound 215, 3-((1S,2S)-1-(2-((4S,7R)-3-(3-(4-fluoro-1-methyl-1H-indazol-5-yl)-2-oxo-2,3-dihydro-1H-imidazol-1-yl)-2-(4-fluoro-3,5-dimethylphenyl)-2,4,5,6,7,8-hexahydro-4,7-epiminocyclohepta [c]pyrazole-9-carbonyl)-5-((R)-4-oxaspiro[2.5]octan-7-yl)-1H-indol-1-yl)-2-methylcyclopropyl)-1,2,4-oxadiazol-5 (4H)-one]: 4.13 µM.

In the case of `Cc1cc(-n2nc3c(c2-n2ccn(-c4ccc5c(cnn5C)c4F)c2=O)[C@H](C)N(C(=O)c2cc4cc(C5CCOCC5)ccc4n2[C@@]2(c4noc(=O)[nH]4)C[C@@H]2C)CCC3)cc(C)c1F` [Compound 607, 3-((1S,2S)-1-(2-((S)-3-(3-(4-fluoro-1-methyl-1H-indazol-5-yl)-2-oxo-2,3-dihydro-1H-imidazol-1-yl)-2-(4-fluoro-3,5-dimethylphenyl)-4-methyl-2,4,5,6,7,8-hexahydropyrazolo[4,3-c]azepine-5-carbonyl)-5-(tetrahydro-2H-pyran-4-yl)-1H-indol-1-yl)-2-methylcyclopropyl)-1,2,4-oxadiazol-5 (4H)-one], the EC50 is 0.0537 µM. The figure for `Cc1cc(-n2nc3c(c2-n2ccn(-c4ccc5c(cnn5C)c4F)c2=O)[C@@H]2CCC[C@H](C3)N2S(=O)(=O)c2cc3cc([C@@H]4CCOC5(CC5)C4)ccc3n2[C@]2(c3noc(=O)[nH]3)C[C@@H]2C)cc(C)c1F` [Compound 603, 3-[(1R,2S)-1-[2-[[(1S,8R)-4-(4-fluoro-3,5-dimethyl-phenyl)-3-[3-(4-fluoro-1-methyl-indazol-5-yl)-2-oxo-imidazol-1-yl]-4,5,12-triazatricyclo[6.3.1.02,6]dodeca-2,5-dien-12-yl]sulfonyl]-5-[(7R)-4-oxaspiro[2.5]octan-7-yl]indol-1-yl]-2-methyl-cyclopropyl]-4H-1,2,4-oxadiazol-5-one] is no less than 10 µM. The same measure for `Cc1cc(-n2nc3c(c2-n2ccn(-c4ccc(CS(C)(=O)=O)cc4)c2=O)[C@@H]2CCC[C@H](C3)N2C(=O)c2cc3cc([C@H]4CCOC(C)(C)C4)ccc3n2[C@@]2(c3noc(=O)[nH]3)C[C@@H]2C)cc(C)c1F` [Compound 546, 3-[(1S,2S)-1-[5-[(4S)-2,2-dimethyltetrahydropyran-4-yl]-2-[(1S,8R)-4-(4-fluoro-3,5-dimethyl-phenyl)-3-[3-[4-(methylsulfonylmethyl)phenyl]-2-oxo-imidazol-1-yl]-4,5,12-triazatricyclo[6.3.1.02,6]dodeca-2,5-diene-12-carbonyl]indol-1-yl]-2-methyl-cyclopropyl]-4H-1,2,4-oxadiazol-5-one]: no less than 10 µM; for `Cc1cc(-n2nc3c(c2-n2ccn(-c4ccc5c(cnn5C)c4F)c2=O)[C@@H]2CC[C@H](C3)N2C(=O)c2cc3cc([C@@H]4CCOC5(CC5)C4)ccc3n2[C@]2(c3noc(=O)[nH]3)C[C@H]2C)cc(C)c1F` [Compound 516, 3-[(1R,2R)-1-[2-[(1S,8R)-4-(4-fluoro-3,5-dimethyl-phenyl)-3-[3-(4-fluoro-1-methyl-indazol-5-yl)-2-oxo-imidazol-1-yl]-4,5,11-triazatricyclo[6.2.1.02,6]undeca-2,5-diene-11-carbonyl]-5-[(7R)-4-oxaspiro[2.5]octan-7-yl]indol-1-yl]-2-methyl-cyclopropyl]-4H-1,2,4-oxadiazol-5-one]: no less than 10 µM; for `Cc1cc(-n2nc3c(c2-n2ccn(-c4ccc5c(cnn5C)c4F)c2=O)[C@@H]2CC[C@H](C3)N2C(=O)c2cc3cc(N4CC(C)(C)C=CC4=O)ccc3n2[C@@]2(c3noc(=O)[nH]3)C[C@@H]2C)cc(C)c1F` [Compound 510]: no less than 10 µM. The same measure for `Cc1cc(-n2nc3c(c2-n2ccn(-c4ccc5c(cnn5C)c4F)c2=O)[C@@H]2CCC[C@H](C3)N2S(=O)(=O)c2cc3cc(N4CCOC5(CC5)C4)ccc3n2[C@]2(c3noc(=O)[nH]3)C[C@@H]2C)cc(C)c1F` [Compound 538, 3-[(1R,2S)-1-[2-[[(1S,8R)-4-(4-fluoro-3,5-dimethyl-phenyl)-3-[3-(4-fluoro-1-methyl-indazol-5-yl)-2-oxo-imidazol-1-yl]-4,5,12-triazatricyclo[6.3.1.02,6]dodeca-2,5-dien-12-yl]sulfonyl]-5-(4-oxa-7-azaspiro[2.5]octan-7-yl)indol-1-yl]-2-methyl-cyclopropyl]-4H-1,2,4-oxadiazol-5-one]: no less than 10 µM; for `Cc1cc(-n2nc3c(c2-n2ccn(-c4ccc5c(cnn5C)c4F)c2=O)[C@@H]2CC[C@H](C3)N2S(=O)(=O)c2cc3cc(C4CCOC(C)(C)C4)ccc3n2[C@@]2(c3noc(=O)[nH]3)C[C@@H]2C)cc(C)c1F` (stereo partly drawn) [Compound 503, 3-((1S,2S)-1-(5-(2,2-dimethyltetrahydro-2H-pyran-4-yl)-2-(((4S,7R)-3-(3-(4-fluoro-1-methyl-1H-indazol-5-yl)-2-oxo-2,3-dihydro-1H-imidazol-1-yl)-2-(4-fluoro-3,5-dimethylphenyl)-2,4,5,6,7,8-hexahydro-4,7-epiminocyclohepta [c]pyrazol-9-yl)sulfonyl)-1H-indol-1-yl)-2-methylcyclopropyl)-1,2,4-oxadiazol-5 (4H)-one]: 0.0978 µM. In the case of `Cc1cc(-n2nc3c(c2-n2ccn(-c4ccc5c(cnn5C)c4F)c2=O)[C@@H]2CC[C@H](C3)N2C(=O)c2cc3sc(C4CCOC(C)(C)C4)nc3cc2C2(c3noc(=O)[nH]3)CC2)cc(C)c1F` (stereo partly drawn) [Compound 133, 3-[1-[2-(2,2-dimethyltetrahydropyran-4-yl)-6-[(1S,8R)-4-(4-fluoro-3,5-dimethyl-phenyl)-3-[3-(4-fluoro-1-methyl-indazol-5-yl)-2-oxo-imidazol-1-yl]-4,5,11-triazatricyclo[6.2.1.02,6]undeca-2,5-diene-11-carbonyl]-1,3-benzothiazol-5-yl]cyclopropyl]-4H-1,2,4-oxadiazol-5-one], the EC50 is greater than 10 µM.
